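These data come from cells grown in 96-well plates and exposed to compound for 48 hours at five concentrations. TGI: total growth inhibition.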
Assays:
Assay in all cases: NCI tumour cell line growth inhibition, 48 h
DLD-1 colon = system: DLD-1 colon
DMS 273 small cell lung = system: DMS 273 small cell lung
HOP-18 NSCLC = system: HOP-18 NSCLC
KM20L2 colon = system: KM20L2 colon
P388 leukemia = system: P388 leukemia
SN12K1 renal = system: SN12K1 renal
SNB-78 CNS = system: SNB-78 CNS
XF 498 CNS = system: XF 498 CNS
LXFL 529 NSCLC = system: LXFL 529 NSCLC
RXF-631 renal = system: RXF-631 renal

## Cc1c2cnccc2c(C)c2c1c1ccccc1n2CCCCCCNCc1ccccc1
DLD-1 colon
  TGI: 2.92 µM
DMS 273 small cell lung
  TGI: 2.47 µM
HOP-18 NSCLC
  TGI: 0.923 µM
KM20L2 colon
  TGI: 3.33 µM
P388 leukemia
  TGI: 0.732 µM
SN12K1 renal
  TGI: 1.9 µM
SNB-78 CNS
  TGI: 5.08 µM
XF 498 CNS
  TGI: 4.37 µM

## CN1CCC(CN2c3ccccc3Sc3ccccc32)CC1
DLD-1 colon
  TGI: 28.3 µM
DMS 273 small cell lung
  TGI: 26.2 µM
HOP-18 NSCLC
  TGI: 27.5 µM
KM20L2 colon
  TGI: 25.8 µM
LXFL 529 NSCLC
  TGI: 27.5 µM
SNB-78 CNS
  TGI: 30 µM
XF 498 CNS
  TGI: 23.9 µM

## COc1cc(C2C(C(=O)O)=C(COC(C)=O)Oc3cc4c(cc32)OCO4)cc(OC)c1OC (stereo unspecified)
DMS 273 small cell lung
  TGI: > 100 µM
HOP-18 NSCLC
  TGI: > 100 µM
KM20L2 colon
  TGI: > 100 µM
RXF-631 renal
  TGI: > 100 µM
SNB-78 CNS
  TGI: > 100 µM
XF 498 CNS
  TGI: > 100 µM
